target: Neuronal acetylcholine receptor subunit alpha-7 (Rattus norvegicus, UniProt Q05941); test: Binding Assay: The [3H]-methyllycaconitine binding assay is a modification of the method described by Davies et al. in Neuropharmacol. 1999, 38, 679-690.Rat brain tissue (hippocampus or whole brain) is homogenized in homogenization buffer (10% w/v, 0.32 M sucrose, 1 mM EDTA, 0.1 mM phenylmethylsulphonyl fluoride (PMSF), 0.01% (w/v) NaN3, pH 7.4, 4 C.) at 600 rpm in a glass homogenizer. The homogenate is centrifuged (1000xg, 4 C., 10 min) and the supernatant is removed. The pellet is resuspended (20% w/v) and the suspension is centrifuged (1000xg, 4 C., 10 min). The two supernatants are combined and centrifuged (15 000xg, 4 C., 30 min). The pellet obtained in this way is referred to as the P2 fraction.The P2 pellet is suspended in binding buffer (50 mM Tris-HCl, 1 mM MgCl2, 120 mM NaCl, 5 mM KCl, 2 mM CaCl2, pH 7.4), and the suspension is centrifuged (15 000xg, 4 C., 30 min), twice.The residue is resuspended in binding buffer and incubated in a volume of 250 ul.; type: tissue-based
Sequence (Q05941 whole entry): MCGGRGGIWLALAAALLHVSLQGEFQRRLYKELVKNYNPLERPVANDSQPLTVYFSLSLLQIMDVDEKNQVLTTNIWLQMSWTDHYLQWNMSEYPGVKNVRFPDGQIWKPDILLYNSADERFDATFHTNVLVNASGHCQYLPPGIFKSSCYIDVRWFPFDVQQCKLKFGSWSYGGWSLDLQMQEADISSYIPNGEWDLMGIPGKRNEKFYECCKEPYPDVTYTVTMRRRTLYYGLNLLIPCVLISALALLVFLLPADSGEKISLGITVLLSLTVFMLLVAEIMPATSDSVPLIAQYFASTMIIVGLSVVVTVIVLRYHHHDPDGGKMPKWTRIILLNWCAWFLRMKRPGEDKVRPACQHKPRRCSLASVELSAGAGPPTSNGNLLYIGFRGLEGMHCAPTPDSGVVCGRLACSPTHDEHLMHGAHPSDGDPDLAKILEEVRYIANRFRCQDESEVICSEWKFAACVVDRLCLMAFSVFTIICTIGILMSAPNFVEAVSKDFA

`CNC(=O)NCc1ccccc1-c1cccc2cc(C(=O)N[C@H]3CN4CCC3CC4)sc12` and `O=C(NC1CC1)c1cccc(-c2cccc3cc(C(=O)N[C@H]4CN5CCC4CC5)oc23)c1` are within 1.5-fold of each other in Ki: 3.3 nM for the first, 3 nM for the second.

Work on `CN1CCN(C(=O)c2cccc(-c3cccc4cc(C(=O)N[C@H]5CN6CCC5CC6)oc34)c2)CC1` yielded a Ki of 14 nM.

Reference: ChEMBL document CHEMBL3638567, “2-heteroaryl carboxamides” (2015)
